Measurements published in publication PMC12251549, “Engineering a Radiohybrid PSMA Ligand with an Albumin-Binding Moiety and Pharmacokinetic Modulation via an Albumin-Binding Competitor for Radiotheranostics” (Molecules, 2025).

Key:
[1] = system: PSMA-expressing LNCaP cells; experiment: Cellular uptake and internalization in LNCaP cells, blocking with 2-PMPA; assay type: cell-based; details: 2-PMPA 100 µM
Protocol: Cellular uptake experiments were performed according to a previous report with slight modifications. LNCaP cells expressing PSMA were cultured in RPMI 1640 medium containing 10% fetal bovine serum (FBS) and 1% penicillin–streptomycin on 6-well culture plates (containing 5 × 10^5 cells/well) for 24 h in a humidified atmosphere (5% CO2) incubator at 37 °C. After removing the medium and washing with phosphate-buffered saline (PBS) (−) once, a mixed solution of [^125I]5 and [^211At]6, [^125I]5 and [^67Ga]Ga-PSMA-617, and [^125I]5 and [^67Ga]5 in 1.0 mL of medium without FBS was added (3.7 kBq/each tracer/well). The final concentrations of the radioligands for [^125I]5, [^211At]6, and [^67Ga]5 were 45.5 pM, 0.2 pM, and 2.5 pM, respectively. These solutions containing radioligands were diluted in saline containing 0.05% (w/v) bovine serum albumin (BSA) to prevent adsorption to tubes or plates and further diluted with medium to 0.00125% as the final BSA concentration. After incubation for 10, 60, and 120 min, the medium from each well was removed, and the cells were washed twice with ice-cold PBS (−); the surface of the cells was washed twice with ice-cold 0.2 M glycine buffer (pH 3.0). The cells were lysed using a 1 M NaOH aqueous solution. The radioactivity of ^67Ga,^125I and ^211At in the 1 M NaOH aqueous solution was determined and defined as the internalized radioligand fraction using an auto well gamma counter (ARC-8001, Hitachi, Ltd., Tokyo, Japan) according to a previous paper. The radioactivity was determined with an auto well gamma counter and corrected for background radiation and physical decay during counting. A window from 16 to 69 keV was used for counting ^125I, and a window from 70 to 120 keV was used for counting ^211At. Correlation factors to eliminate any crossover of ^125I activity in the ^211At counts were determined by measuring the ^125I standard in each window. More than one week after the experiments, the radioactivity counts of ^125I were measured after the decay of ^211At. The protein amount in cells was quantified using a BCA Protein Assay Kit (Nacalai Tesque, Kyoto, Japan) according to the manufacturer’s protocol. All data were expressed as percent dose per milligram protein (%dose/mg protein). In blocking experiments, a selective inhibitor of the PSMA, (2S)-2-(phosphonomethyl)pentanedioic acid (2-PMPA) (final concentration 100 µM), was added to each well with tracers. After incubation for 10, 60, and 120 min, radioactivity and protein concentration were determined in the same manner as the experiment without the blocking agent.

[2] = Biodistribution with post-administration of albumin-binding competitor IPBA; assay type: in vivo, normal mice (ddY); details: normal mice, IPBA at 1 h postinjection, 10 molar equivalent of blood albumin; except in the kidney
Protocol: To evaluate the effects of an albumin-binding competitor (sodium salt of IPBA) in normal mice, [^125I]5 and [^211At]6 were intravenously co-administered. At 1 h postinjection of the radiolabeled compounds, IPBA (3.4 mg, 11 µmol) dissolved in saline at a 10 molar equivalent of blood albumin was administered. Mice were sacrificed at 65 min, 70 min, 2 h, 4 h, 12 h, and 24 h postinjection of [^125I]5 and [^211At]6. Tissues of interest were treated, and the radioactivity was measured in the same manner as above. Data are also shown as %ID/g or %ID.

O=C([O-])CN1CCN(CC(=O)[O-])CCN(CC(=O)NC(CCCCNC(=O)CCCc2ccc([125I])cc2)C(=O)NCC2CCC(C(=O)NC(Cc3ccc4ccccc4c3)C(=O)NCCCCC(NC(=O)NC(CCC(=O)O)C(=O)O)C(=O)O)CC2)CCN(CC(=O)[O-])CC1.[Ga+3] (centres unmarked) [[^125I]5]
Effect of excess 2-PMPA on cellular uptake [1]: significantly reduced | Effect of IPBA administration on radioactivity levels in tissues [2]: significantly decreased
